Measured values from patent US8481752B2, “Fluorescent imaging with substituted cyanine dyes” (Li-Cor, Inc., priority 2009, dated 2013).

Legend:
[1] = Photostability on nitrocellulose under repeated Odyssey scans; format: physicochemical; conditions: for relative fluorescence with additional scans: as GAR conjugates on nitrocellulose, normalized to first scan, 100 scans
Procedure: The photostability of compound 8 was compared to that of Alexa Fluor 680 and IRDye 700DX. IRDye 700DX is one of the most photostable 700 nm fluorescent dyes known. Test samples were prepared by spotting equimolar amounts of dye-labeled conjugates (i.e., goat anti-rabbit (GAR) secondary antibodies labeled with the appropriate dye) onto nitrocellulose membrane. The membrane was then scanned repeatedly on an Odyssey Infrared Imager, so that the prolonged exposure of the dyes to the laser source induced some photodegradation. The signal intensity for each dye was normalized to the signal in the first scan for that dye (FIG. 9A-B).

[2] = Water solubility of the dye; format: physicochemical

| resistance to photodegradation ([1]; as GAR conjugate) | relative fluorescence with additional scans [1] | water solubility [2] | Compound |
| --- | --- | --- | --- |
| good resistance to photodegradation | decreased slightly | highly water-soluble | CC1(C)C(/C=C/C(=C/C=C2/N(CCCS(=O)(=O)O)c3ccc4c(S(=O)(=O)[O-])cc(S(=O)(=O)O)cc4c3C2(C)C)c2cccc(CCCCC(=O)O)c2)=[N+](CCCS(=O)(=O)O)c2ccc3c(S(=O)(=O)O)cc(S(=O)(=O)O)cc3c21 [Compound 8, Sodium 2-((1E,3Z,5E)-3-(3-(4-Carboxybutyl)phenyl)-5-(1,1-dimethyl-6,8-disulfonato-3-(3-sulfonatopropyl)-1H-benzo[e]indol-2(3H)-ylidene)penta-1,3-dienyl)-1,1-dimethyl-3-(3-sulfonatopropyl)-1H-benzo[e]indolium-6,8-disulfonate] |
| – | essentially unchanged | – | C[Si](C)(CCC[N+](CCCS(=O)(=O)[O-])(CCCS(=O)(=O)[O-])CCCS(=O)(=O)[O-])O[Si]1(O[Si](C)(C)CCC[N+](CCCS(=O)(=O)[O-])(CCCS(=O)(=O)[O-])CCCS(=O)(=O)[O-])n2c3c4ccccc4c2N=C2N=C(N=c4c5ccccc5c(n41)=NC1=NC(=N3)c3ccccc31)c1cccc(OCCCOC(=O)NCCCCCC(=O)ON3C(=O)CCC3=O)c12.[Na+].[Na+].[Na+].[Na+] (stereo not shown) [IRDye 700DX] |
